The values that follow come from US4661487A (priority 1984, dated 1987).

Series [1] has as its system spontaneously hypertensive rats. Nature of the series: Heart rate-modifying action in spontaneously hypertensive rats. It is filed as in vivo, spontaneously hypertensive rats (SHR rats). The procedure: (§1) The substances were administered orally with a probang to fasting spontaneously hypertensive rats. The animals were fasted 17 hours before the start of the experiment. All the substances were dissolved in 1% strength carboxymethylcellulose (MH 300), and the administration volume was 10 ml/kg. The starting values of the blood pressure and heart rate were recorded directly before the administration. The action of the substance was measured 1, 2, 4, 7 and 24 hours after the administration. The measurement was performed non-invasively with a W+W Recorder 8002, it being possible to measure the systolic blood pressure and the heart rate. The animals were offered food again 4 hours after administration of the substance. The values can be seen from Table 1, page 5. […] The experiment was carried out by the same method as in Example 1, and the values can be seen in Table 2.

For series [2] the test system is unchanged. Nature of the series: Hypotensive action (systolic blood pressure, W+W Recorder 8002) in spontaneously hypertensive rats. It is filed as in vivo, spontaneously hypertensive rats (SHR rats). The procedure: as §1
The conditions of series [3]: peripheral vasodilation; cited from earlier work.
The subject of series [4] is collagen-induced aggregation of human platelets. Put plainly: Inhibition of collagen-induced aggregation of human platelets in vitro (method of Born, platelet-rich human plasma). Type of series: cell-based. As for the experimental part:
Inhibition of the collagen-induced aggregation of human platelets by the combination of 4,5-dihydro-6-[4-(1-imidazolyl)-thien-2-yl]-5-methyl-3(2H)-pyridazinone hydrochloride (D) with lofexidine (A).
The inhibition of collagen-induced platelet aggregation in vitro was carried out by the method of Born (Nature, 194, 927-929 (1962)) on platelet-rich human plasma with 4,5-dihydro-6-[4-(1-imidazolyl)-thien-2-yl]-5-methyl-3(2H)-pyridazinone hydrochloride (D), lofexidine (A) and with mixtures of A and D.
In each case the mean value of 4 independent determinations has been given. In the investigations of the mixtures, the concentration of A was constant at 1×10^-5 mole/l.

“And” between values parts separate entries of the source, which are not always exact repeats. Equal values may be shown once. Where a name gives a salt, the structure may show the parent alone.

Turning to `CC1CC(=O)NN=C1c1ccc(-n2ccnc2)cc1` (stereo not drawn) [Substance B, 4,5-dihydro-6-[4-(1-imidazolyl)-phenyl]-5-methyl-3(2H)-pyridazinone], the “Heart rate, Δ after administration of the substance” value (from here on “Heart rate, Δ after administration”) is “+113 ± 14 beats/minute” in series [1] (10.0 mg/kg p.o., 1 hour); “+108 ± 10 beats/minute” in series [1] (10.0 mg/kg p.o., 2 hours); “+85 ± 21 beats/minute” in series [1] (10.0 mg/kg p.o., 4 hours); “+129 ± 24 beats/minute” in series [1] (10.0 mg/kg p.o., 7 hours); “+16 ± 16 beats/minute” in series [1] (10.0 mg/kg p.o., 24 hours). Further, the “Systolic blood pressure, Δ after administration of the substance” value (shortened to “Systolic blood pressure, Δ”) in series [2] (10.0 mg/kg p.o., 1 hour) is -95.4 ± 3.4 mmHg; in series [2] (10.0 mg/kg p.o., 2 hours), -97.2 ± 4.6 mmHg; in series [2] (10.0 mg/kg p.o., 4 hours) it was -98.4 ± 5.6 mmHg; in series [2] (10.0 mg/kg p.o., 7 hours), -93.0 ± 5.6 mmHg; in series [2] (10.0 mg/kg p.o., 24 hours) it was -35.8 ± 6.6 mmHg.

Regarding `NNc1nncc2ccccc12` [hydralazine], the “side effect in hypertension therapy” value in series [3] is on record as “reflex tachycardia”.

Consider `CC1CC(=O)NN=C1c1cc(-n2ccnc2)cs1` (stereo not drawn) [Substance D, 4,5-dihydro-6-[4-(1-imidazolyl)-thien-2-yl]-5-methyl-3(2H)-pyridazinone hydrochloride], for which the IC50 in series [4] (Homo sapiens, Platelet, read-out: concentration for a half-maximum inhibition (IC50) of the collagen-induced platelet aggregation) was 46 nM.

In the case of `CC(Oc1c(Cl)cccc1Cl)C1=NCCN1.Cl` (racemic) [Substance A, (±)-2-[1-(2,6-dichlorophenoxy)-ethyl]-1,3-diazacyclopent-2-ene hydrochloride], the “Heart rate, Δ after administration” value in series [1] (0.1 mg/kg p.o., 1 hour) was “+10 ± 13 beats/minute”; in series [1] (0.1 mg/kg p.o., 2 hours), “+37 ± 27 beats/minute”; in series [1] (0.1 mg/kg p.o., 4 hours), “+12 ± 12 beats/minute”; in series [1] (0.1 mg/kg p.o., 7 hours) it was -14 ± 12 beats/minute; in series [1] (1.0 mg/kg p.o., 1 hour, hydrochloride), -22 ± 18 beats/minute and -22 ± 8 beats/minute; in series [1] (1.0 mg/kg p.o., 2 hours), -6 ± 13 beats/minute. Besides, the “Heart rate, Δ after administration” value in series [1] (1.0 mg/kg p.o., 4 hours) is recorded as -2 ± 15 beats/minute; in series [1] (1.0 mg/kg p.o., 7 hours), -10 ± 16 beats/minute. Further, the “% inhibition of collagen-induced platelet aggregation” value in series [4] (A at 1 × 10^-5 mole/l, D 0, mean of 4 determinations) came to 3%. In addition, the “Systolic blood pressure, Δ” value in series [2] (0.1 mg/kg p.o., 1 hour) was -18.8 ± 16.6 mmHg; in series [2] (0.1 mg/kg p.o., 2 hours), -4.0 ± 18.6 mmHg; in series [2] (0.1 mg/kg p.o., 4 hours), -11.8 ± 23.2 mmHg; in series [2] (0.1 mg/kg p.o., 7 hours), -10.8 ± 26.9 mmHg; in series [2] (1.0 mg/kg p.o., 1 hour), -28.4 ± 13.1 mmHg; in series [2] (1.0 mg/kg p.o., 2 hours) it was -22.8 ± 11.8 mmHg. Moreover, the “Systolic blood pressure, Δ” value in series [2] (1.0 mg/kg p.o., 4 hours) is listed as -23.6 ± 15.5 mmHg; in series [2] (1.0 mg/kg p.o., 7 hours), -22.2 ± 17.4 mmHg.

Consider `NNc1nnc(NN)c2ccccc12` [dihydralazine], for which, in series [3], the “side effect in hypertension therapy” value is “reflex tachycardia”.

With `Nc1cc(N2CCCCC2)nc(N)[n+]1[O-]` [minoxidil], the “side effect in hypertension therapy” value in series [3] was “reflex tachycardia”.

Consider `CC1CC(=O)NN=C1c1cc(-n2ccnc2)cs1` (stereo not drawn) [Substance C, 4,5-dihydro-6-[4-(1-imidazolyl)-thien-2-yl]-5-methyl-3(2H)-pyridazinone], for which the “Heart rate, Δ after administration” value in series [1] (10.0 mg/kg p.o., 1 hour) is “+104 ± 21 beats/minute”; in series [1] (10.0 mg/kg p.o., 2 hours), “+91 ± 10 beats/minute”; in series [1] (10.0 mg/kg p.o., 4 hours), “+70 ± 12 beats/minute”; in series [1] (10.0 mg/kg p.o., 7 hours) it was “+36 ± 13 beats/minute”. For the same compound, the “Systolic blood pressure, Δ” value is recorded as -48.1 ± 16.2 mmHg in series [2] (10.0 mg/kg p.o., 1 hour); -66.2 9.9 mmHg in series [2] (10.0 mg/kg p.o., 2 hours); -93.9 ± 6.8 mmHg in series [2] (10.0 mg/kg p.o., 4 hours); -98.9 ± 9.1 mmHg in series [2] (10.0 mg/kg p.o., 7 hours).
